Test results reported in PubChem BioAssay AID1259408 (Genetic Toxicology Data Bank (GENE-TOX), 2018).
Activity calls are given as the source filed them. No rule for the calls is given here.

Tested on: GENE-TOX genotoxicity assays, various organisms and cells
Test: GENE-TOX mutagenicity studies
Conditions: for call: Assay Type: In vivo carcinogenicity studies
[1] = Species/Cell Type: Fischer rat embryo (RLV/1706) cells, Assay Type: Cell transformation, viral enhanced, Assay Code: CTR+, Evaluation Type: Evaluation A (Pre-1980)
[2] = Species/Cell Type: Human lymphocytes, Assay Type: Sister-chromatid exchange (SCE) in vitro, Assay Code: SCL+D, Dose Response: With dose response, Evaluation Type: Evaluation B (Post-1980)
[3] = Species/Cell Type: Human, Assay Type: Sister-chromatid exchange (SCE) in vitro, Assay Code: SC1+D, Dose Response: With dose response, Evaluation Type: Evaluation B (Post-1980)
[4] = Species/Cell Type: Mammalian polychromatic erythrocytes, Assay Type: Micronucleus test, chromosome aberrations, Assay Code: MNTT, Evaluation Type: Evaluation A (Pre-1980)
[5] = Species/Cell Type: Mouse, Sex: Male, Assay Type: Sperm morphology, Assay Code: SPI+, Evaluation Type: Evaluation A (Pre-1980)
[6] = Species/Cell Type: Neurospora crassa, Assay Type: Forward gene mutation, Assay Code: NEF+, Evaluation Type: Evaluation A (Pre-1980)
[7] = Species/Cell Type: Nonhuman, Assay Code: CCG+, Evaluation Type: Evaluation A (Pre-1980)
[8] = Species/Cell Type: Drosophila melanogaster, Assay Type: Sex-linked recessive lethal gene mutation, Assay Code: SRL+, Evaluation Type: Evaluation A (Pre-1980)
[9] = Species/Cell Type: Human lymphocytes, Assay Type: Sister-chromatid exchange (SCE) in vivo, Assay Code: SCY+, Evaluation Type: Evaluation B (Post-1980)
[10] = Species/Cell Type: Syrian hamster embryo (SA7/SHE) cells, Assay Type: Cell transformation, viral enhanced, Assay Code: CT7-, Evaluation Type: Evaluation A (Pre-1980)
[11] = Species/Cell Type: Salmonella typhimurium (one or more of the five standard strains: TA98, TA100, TA1535, TA1537, and TA1538), Assay Type: Histidine reverse gene mutation, Ames assay, Assay Code: SALT, Evaluation Type: Evaluation A (Pre-1980)

What does the source list for `Cc1ccc2cc3c(ccc4ccccc43)c3c2c1CC3`?
mutagenic call (Species/Cell Type: Chinese hamster lung (V79) cells, Assay Type: Forward gene mutation at the HPRT or ouabain locus, Assay Code: V79+*, Activation: With metabolic activation, Evaluation Type: Evaluation A (Pre-1980)): active; positive; mutagenic call (Species/Cell Type: Chinese hamster lung (V79) cells, Assay Type: Forward gene mutation, host-mediated assay, Assay Code: HMG+, Evaluation Type: Evaluation A (Pre-1980)): active; positive; mutagenic call (Species/Cell Type: Chinese hamster ovary (CHO) cells, Assay Type: Forward gene mutation at the HPRT locus, Assay Code: CHO+*, Activation: With metabolic activation, Evaluation Type: Evaluation B (Post-1980)): active; positive; mutagenic call (Species/Cell Type: Drosophila melanogaster, Assay Type: Sex-linked recessive lethal gene mutation, Assay Code: SRLT, Evaluation Type: Evaluation A (Pre-1980)): no conclusion; mutagenic call [1]: active; positive; mutagenic call (Species/Cell Type: Fischer rat embryo (SA7/RE) cells, Assay Type: Cell transformation, viral enhanced, Assay Code: CTA+, Evaluation Type: Evaluation A (Pre-1980)): active; positive; mutagenic call (Species/Cell Type: Human diploid fibroblasts, Assay Type: Unscheduled DNA synthesis (UDS) in vitro, DNA effects, Assay Code: UDH+, Evaluation Type: Evaluation A (Pre-1980)): active; positive; mutagenic call [2]: active; positive; mutagenic call [3]: active; positive; mutagenic call [4]: no conclusion; mutagenic call (Species/Cell Type: Mouse (BALB/c-3T3) cells, Assay Type: Cell transformation, Assay Code: CTB+D, Dose Response: With dose response, Evaluation Type: Evaluation A (Pre-1980)): active; positive; mutagenic call (Species/Cell Type: Mouse (C3H/10T1/2) cells, Assay Type: Cell transformation, Assay Code: CTH+D, Dose Response: With dose response, Evaluation Type: Evaluation A (Pre-1980)): active; positive; mutagenic call (Species/Cell Type: Mouse embryo (AKR/ME) cells, Assay Type: Cell transformation, Assay Code: CTK+, Evaluation Type: Evaluation A (Pre-1980)): active; positive; mutagenic call (Species/Cell Type: Mouse prostate cells, Assay Type: Cell transformation, Assay Code: CTM+D, Dose Response: With dose response, Evaluation Type: Evaluation A (Pre-1980)): active; positive; mutagenic call [5]: active; positive; mutagenic call [6]: active; positive; mutagenic call (Species/Cell Type: Nonhuman, Assay Type: Chromosome aberrations in vitro, Assay Code: CY&-, Evaluation Type: Evaluation A (Pre-1980)): inactive; negative; call [7]: active; positive; mutagenic call (Species/Cell Type: Nonhuman, Assay Type: Sister-chromatid exchange (SCE) in vitro, Assay Code: SC2+, Evaluation Type: Evaluation A (Pre-1980)): active; positive; mutagenic call (Species/Cell Type: Nonhuman, Assay Type: Sister-chromatid exchange (SCE) in vivo, Assay Code: SC3+D, Dose Response: With dose response, Evaluation Type: Evaluation A (Pre-1980)): active; positive; mutagenic call (Species/Cell Type: Rat primary hepatocytes, Assay Type: Unscheduled DNA synthesis (UDS) in vitro, DNA effects, Assay Code: UDP+D, Dose Response: With dose response, Evaluation Type: Evaluation A (Pre-1980)): active; positive; mutagenic call (Species/Cell Type: Salmonella typhimurium (one or more of the five standard strains: TA98, TA100, TA1535, TA1537, and TA1538), Assay Type: Histidine reverse gene mutation, Ames assay, Assay Code: SAL+*, Activation: With metabolic activation, Evaluation Type: Evaluation A (Pre-1980)): active; positive; mutagenic call (Species/Cell Type: Salmonella typhimurium, Assay Type: Forward and reverse gene mutation, body fluid assay, Assay Code: BFU-, Evaluation Type: Evaluation A (Pre-1980)): inactive; negative; mutagenic call (Species/Cell Type: Syrian hamster embryo (SA7/SHE) cells, Assay Type: Cell transformation, viral enhanced, Assay Code: CT7+, Evaluation Type: Evaluation A (Pre-1980)): active; positive; mutagenic call (Species/Cell Type: Syrian hamster embryo (SHE) cells, Assay Type: Cell transformation, clonal assay, Assay Code: CTC+D, Dose Response: With dose response, Evaluation Type: Evaluation A (Pre-1980)): active; positive; mutagenic call (Species/Cell Type: Syrian hamster embryo (SHE) cells, Assay Type: Cell transformation, focus assay, Assay Code: CTF+, Evaluation Type: Evaluation A (Pre-1980)): active; positive

With `N#Cc1cc(I)c(O)c([N+](=O)[O-])c1` as the compound, how does the mutagenic call (Species/Cell Type: Mammalian polychromatic erythrocytes, Assay Type: Micronucleus test, chromosome aberrations, Assay Code: MNTT, Evaluation Type: Evaluation B (Post-1980)) read?
Its mutagenic call is “no conclusion”.

For `CS(=O)(=O)OCCCCOS(C)(=O)=O`, which mutagenic call (Species/Cell Type: Arabidopsis species, Assay Type: Gene mutation, Assay Code: ARM+, Evaluation Type: Evaluation A (Pre-1980)) is on record?
The mutagenic call was “active; positive”.

What about the mutagenic call (Species/Cell Type: Chinese hamster ovary (CHO) cells, Assay Type: Forward gene mutation at the HPRT locus, Assay Code: CHO+, Evaluation Type: Evaluation B (Post-1980)) of the same compound?
Its mutagenic call is “active; positive”.

And the mutagenic call [8]?
The mutagenic call was “active; positive”.

And the mutagenic call (Species/Cell Type: Escherichia coli polA (W3119 vs P3478), Assay Type: Rec-assay, DNA effects (bacterial DNA repair), Assay Code: RE1+, Evaluation Type: Evaluation A (Pre-1980))?
Its mutagenic call is “active; positive”.

What about the mutagenic call (Species/Cell Type: Hordeum vulgare (barley), Assay Type: Chromosome aberrations, Assay Code: HOC+D, Dose Response: With dose response, Evaluation Type: Evaluation A (Pre-1980)) of the same compound?
Its mutagenic call is “active; positive”.

What about the mutagenic call (Species/Cell Type: Human lymphocytes or leukocytes, Assay Type: Chromosome aberrations in vitro, Assay Code: CY7+D, Dose Response: With dose response, Evaluation Type: Evaluation A (Pre-1980)) of the same compound?
The mutagenic call was “active; positive”.

What about the mutagenic call (Species/Cell Type: Human lymphocytes, Assay Type: Sister-chromatid exchange (SCE) in vitro, Assay Code: SCL+D, Dose Response: With dose response, Evaluation Type: Evaluation A (Pre-1980)) of the same compound?
The mutagenic call was “active; positive”.

What about the mutagenic call [9] of the same compound?
Its mutagenic call is “active; positive”.

What about the mutagenic call (Species/Cell Type: Human, Assay Type: Sister-chromatid exchange (SCE) in vitro, Assay Code: SC1+D, Dose Response: With dose response, Evaluation Type: Evaluation A (Pre-1980)) of the same compound?
Its mutagenic call is “active; positive”.

What about the mutagenic call (Species/Cell Type: Mammalian germ cells, Sex: Male, Assay Type: Chromosome aberrations in vivo, Assay Code: CY9T, Evaluation Type: Evaluation A (Pre-1980)) of the same compound?
Its mutagenic call is “no conclusion”.

And the mutagenic call (Species/Cell Type: Mammalian polychromatic erythrocytes, Assay Type: Micronucleus test, chromosome aberrations, Assay Code: MNT+, Evaluation Type: Evaluation B (Post-1980))?
Its mutagenic call is “active; positive”.

And the mutagenic call [4]?
The mutagenic call was “no conclusion”.

What about the mutagenic call (Species/Cell Type: Mouse lymphoma (L5178Y) cells, Assay Type: Forward gene mutation at the thymidine kinase (TK) locus, chromosome aberrations, Assay Code: L51+, Evaluation Type: Evaluation A (Pre-1980)) of the same compound?
Its mutagenic call is “active; positive”.

And the mutagenic call [5]?
Its mutagenic call is “active; positive”.

And the mutagenic call [6]?
The mutagenic call was “active; positive”.

What about the mutagenic call (Species/Cell Type: Nonhuman bone marrow, Assay Type: Chromosome aberrations, in vivo, Assay Code: CY#+D, Dose Response: With dose response, Evaluation Type: Evaluation A (Pre-1980)) of the same compound?
Its mutagenic call is “active; positive”.

And the call (Species/Cell Type: Nonhuman, Assay Code: CCGT, Evaluation Type: Evaluation A (Pre-1980))?
Its call is “no conclusion”.

And the mutagenic call (Species/Cell Type: Nonhuman, Assay Type: Sister-chromatid exchange (SCE) in vitro, Assay Code: SC2+, Evaluation Type: Evaluation B (Post-1980))?
The mutagenic call was “active; positive”.

And the mutagenic call (Species/Cell Type: Rabbit, Sex: Male, Assay Type: Sperm morphology, Assay Code: SPR+, Evaluation Type: Evaluation A (Pre-1980))?
The mutagenic call was “active; positive”.

And the mutagenic call (Species/Cell Type: Rodents, Sex: Male, Assay Type: Dominant lethal test, Assay Code: DLT+, Evaluation Type: Evaluation A (Pre-1980))?
The mutagenic call was “active; positive”.

What does the source list for `[Li+]`?
mutagenic call (Species/Cell Type: Bacillus subtilis (H17 vs M45), Assay Type: Rec-assay, spot test, DNA effects (bacterial DNA repair), Assay Code: REW-, Evaluation Type: Evaluation A (Pre-1980)): inactive; negative; mutagenic call [10]: inactive; negative

Which mutagenic call [2] does the source give for `CC1=C(O)C(=O)CC1` here?
Its mutagenic call is “active; positive”.

What about the mutagenic call [3] of the same compound?
The mutagenic call was “active; positive”.

What does the source list for `CC1CC(C)CN(N=O)C1` (stereo unspecified)?
mutagenic call [8]: active; positive; mutagenic call (Species/Cell Type: Saccharomyces cerevisiae, Assay Type: Forward gene mutation, Assay Code: YEF+*, Activation: With metabolic activation, Evaluation Type: Evaluation A (Pre-1980)): active; positive; mutagenic call (Species/Cell Type: Saccharomyces cerevisiae, Assay Type: Reverse gene mutation, Assay Code: YER+*, Activation: With metabolic activation, Evaluation Type: Evaluation A (Pre-1980)): active; positive; mutagenic call [11]: no conclusion

With `CC(=O)O` as the compound, how does the mutagenic call (Species/Cell Type: Human lymphocytes, Assay Type: Sister-chromatid exchange (SCE) in vitro, Assay Code: SCL-, Evaluation Type: Evaluation A (Pre-1980)) read?
Its mutagenic call is “inactive; negative”.

And the mutagenic call (Species/Cell Type: Human, Assay Type: Sister-chromatid exchange (SCE) in vitro, Assay Code: SC1-, Evaluation Type: Evaluation A (Pre-1980))?
Its mutagenic call is “inactive; negative”.

What about the mutagenic call (Species/Cell Type: Salmonella typhimurium (one or more of the five standard strains: TA98, TA100, TA1535, TA1537, and TA1538), Assay Type: Histidine reverse gene mutation, Ames assay, Assay Code: SAL-, Evaluation Type: Evaluation A (Pre-1980)) of the same compound?
The mutagenic call was “inactive; negative”.

And the mutagenic call [10]?
Its mutagenic call is “inactive; negative”.

For `CN1C(C(=O)Nc2ccccn2)=C(O)c2ccccc2S1(=O)=O`, which mutagenic call [9] is on record?
Its mutagenic call is “active; positive”.

`c1ccc2c(c1)ccc1nc3c(ccc4ccccc43)cc12` was tested. Which mutagenic call [1] did it give?
The mutagenic call was “active; positive”.

And the call [7]?
Its call is “active; positive”.

With `NCC[C@H](O)C(=O)N[C@@H]1C[C@H](N)[C@@H](O[C@H]2O[C@H](CN)[C@@H](O)[C@H](O)[C@H]2O)[C@H](O)[C@H]1O[C@H]1O[C@H](CO)[C@@H](O)[C@H](N)[C@H]1O` as the compound, how does the mutagenic call (Species/Cell Type: Saccharomyces cerevisiae, Assay Type: Mitotic recombination or gene conversion, Assay Code: YEH-, Evaluation Type: Evaluation A (Pre-1980)) read?
Its mutagenic call is “inactive; negative”.

For `CCCCN(CCC(C)O)N=O` (stereo unspecified), which mutagenic call (Species/Cell Type: Salmonella typhimurium (one or more of the five standard strains: TA98, TA100, TA1535, TA1537, and TA1538), Assay Type: Histidine reverse gene mutation, Ames assay, Assay Code: SAL+, Evaluation Type: Evaluation A (Pre-1980)) is on record?
Its mutagenic call is “active; positive”.

How did the mutagenic call (Species/Cell Type: Bacillus subtilis (H17 vs M45), Assay Type: Rec-assay, spot test, DNA effects (bacterial DNA repair), Assay Code: REW+, Evaluation Type: Evaluation A (Pre-1980)) turn out when `CN(C)c1ccc(N=Nc2ccccc2C(=O)O)cc1` was run?
Its mutagenic call is “active; positive”.

And the mutagenic call [11]?
The mutagenic call was “no conclusion”.
